Test results reported in EP2308493A1, “AMELIORATING OR THERAPEUTIC AGENT FOR DYSLIPIDEMIA” (Mochida Pharmaceutical Co., Ltd., priority 2008, dated 2010).

Tests used:
Cho diet rabbit = assay: Effectiveness in Cho diet rabbit (plasma lipids, auricle skin temperature, platelet collagen aggregation); format: in vivo, Japan white male rabbits; settings: HCD diet 12 weeks; EPA-E 1000 mg/kg or tocopherol nicotinate 300 mg/kg orally once a day; compared to control group
Text: Pharmacological action of EPA-E and/or tocopherol nicotinate on plasma lipids, auricle skin temperature, and platelet aggregation is confirmed by using rabbits that have been fed with Cho diet (hereinafter referred to as "HCD diet") known to develop a dyslipidemia. Japan white male rabbits (Funabashi Farm) having a body weight of 2.7 to 3.3 kg are allowed to freely take 100 g/day of normal diet (F-1, Funabashi Farm) or HCD diet (RC-4 supplemented with 1% Cho, Oriental Yeast Co.,Ltd.) for 12 weeks under 12 hour light-dark cycles at 23°C. 5 groups (each comprising 10 animals), namely, normal group (normal diet feeding); control group (HCD diet feeding); EPA-E group (HCD diet feeding + EPA-E administration); tocopherol nicotinate group (HCD diet feeding + tocopherol nicotinate administration); and combination group (HCD diet feeding + EPA-E administration + tocopherol nicotinate administration) are set. During the feeding, the EPA-E group is administered with 1000 mg/kg of EPA-E; the tocopherol nicotinate group is administered with 300 mg/kg of tocopherol nicotinate; and the combination group is administered with 1000 mg/kg of EPA-E and […] of tocopherol nicotinate after suspending in 5% aqueous solution of gum arabic. The administration is conducted orally once a day. The normal group and the control group are orally administered with 5% aqueous solution of gum arabic once a day. At the start of the administration and after 12 weeks of feeding, auricle skin temperature is measured by thermography and blood is collected for plasma biochemical tests. Platelet collagen aggregation is also checked after 12 weeks of feeding by measuring absorbance.

[1] = system: lauric acid-induced peripheral arterial occlusive hypertriglyceridemia rat; assay: Effectiveness in lauric acid-induced peripheral arterial occlusive hypertriglyceridemia rat (lesion score); format: in vivo, Wister rats; settings: 2 weeks after the surgery; EPA-E 300 mg/kg or tocopherol nicotinate 100 mg/kg orally once a day; compared to control group
Description: 4 week old male Wister rats (Japan SLC, Inc.) are allowed to freely take high sucrose diet (AIN-76A, PURINA MILLS) for 4 weeks under 12 hour light-dark cycles at 23°C. 5 groups (each comprising 10 animals), namely, sham surgery group; control group, EPA-E group (EPA-E administration); tocopherol nicotinate group (tocopherol nicotinate administration); and combination group (EPA-E administration + tocopherol nicotinate administration) are set. During the feeding, the EPA-E group is administered with 300 mg/kg of EPA-E; the tocopherol nicotinate group is administered with 100 mg/kg of tocopherol nicotinate; and the combination group is administered with 300 mg/kg of EPA-E and 100 mg/kg of tocopherol nicotinate after suspending in 5% aqueous solution of gum arabic. The administration is conducted orally once a day. […] Progress of the lesion of the limbs on the peripheral side of the injection site is scored for wet gangrene and dry gangrene, and the lesion is visually inspected with naked eyes every day until 2 weeks after the surgery. Progress of the lesion is scored by the following criteria: • Score 0: no change, score 1: the lesion is limited to nail, score 2: the lesion is limited to finger, score 3: the lesion is expanded to footpad, and score 4: the lesion is expanded to lower limb.

hypertriglyceridemia rat = assay: Effectiveness in hypertriglyceridemia rat; format: in vivo, Zucker Diabetic Fatty rat; settings: 4 weeks; EPA-E 300 mg/kg or tocopherol nicotinate 100 mg/kg orally once a day as emulsion; compared to control group
Description: 6 week old male Zucker Diabetic Fatty rat (Charles River Japan) are allowed to freely take diabetes-inducing diet (Purina 5008 (crude protein content, 23.5%; crude lipid content, 6.5%)) under 12 hour light-dark cycles at 23°C. 4 groups (each comprising 10 animals), namely, control group; EPA-E group (EPA-E administration); tocopherol nicotinate group (tocopherol nicotinate administration); and combination group (EPA-E administration + tocopherol nicotinate administration) are set. During the feeding, the EPA-E group is administered with 300 mg/kg of EPA-E; the tocopherol nicotinate group is administered with 100 mg/kg of tocopherol nicotinate; and the combination group is administered with 300 mg/kg of EPA-E and 100 mg/kg of tocopherol nicotinate. The administration is conducted orally once a day. The drugs are administered by preparing an emulsion preparation according to Preparation Example 8. The control group is orally administered with base of the emulsion preparation of Preparation Example 8 once a day. At the start of the administration and after 4 weeks of feeding, auricle skin temperature is measured by thermography and blood is collected for plasma biochemical test.

[2] = system: high sucrose diet-fed hamster; assay: Effectiveness in high sucrose diet-fed hamster (plasma lipid change rate); format: in vivo, Syrian hamsters; settings: for Change rate Non-HDL Cho / Change rate TG / Change rate Total Cho: 14th day, versus control group
Description: Pharmacological action of EPA-E and/or tocopherol nicotinate on plasma lipids was confirmed by using hamsters that had been fed high sucrose diet. 6 week old male Syrian hamsters (Japan SLC, Inc.) were allowed to freely take fish meal-less F-1 diet (F-1, Funabashi Farm) under 12 hour light-dark cycles at 23°C for 2 weeks, and then, high sucrose diet (D11511, Research Diet Inc.) for 2 weeks. 6 groups (each comprising 6 animals), namely, control group, EPA-E 300 group, EPA-E 1000 group, tocopherol nicotinate 1000 group (hereinafter referred to as TN1000 group), low dose combination group, and high dose combination group were set. During the feeding of the high sucrose diet, the EPA-E 300 group was administered with 300 mg/kg of EPA-E (Mochida Pharmaceutical Co.); the EPA-E 1000 group was administered with 1000 mg/kg of EPA-E; the TN1000 group was administered with 1000 mg/kg of tocopherol nicotinate (Wako Pure Chemical Industries, Ltd.); the low dose combination group was administered with 300 mg/kg of EPA-E and 1000 mg/kg of tocopherol nicotinate; and the high dose combination group was administered with 1000 mg/kg of EPA-E and 1000 mg/kg of tocopherol nicotinate after suspending in 5% aqueous solution of gum arabic. The control group was orally administered with 5% aqueous solution of gum arabic once a day. Blood was collected one day before the start of the administration and on the 14th day of the administration, and plasma was separated by centrifugation. Plasma TG, total Cho, and HDL Cho concentration were respectively measured using a biochemical analyzer (A0400, Olympus Corporation) and commercially available assay reagent (Wako Pure Chemical Industries, Ltd.). The nan-HDL Cho concentration (total Cho-HDL Cho) was also calculated. No statistically significant difference was found in the plasma lipid concentrations of various groups on the day before the start of the administration. The plasma TG, total Cho, and non-HDL Cho concentration of each group at 14th day of the drug administration was compared with the corresponding values of the control group, and change rate was calculated by the following equation: Change rate (%) = [{(lipid concentration of each group)-(lipid concentration of control group)}x100]/(lipid concentration of the control group) [formula] For the combination group, sum of the change rate of the EPA-E sole administration group and the change rate of the tocopherol nicotinate sole administration group is shown in Table 1 as the theoretical change rate of the combination group. When the change rate of the actual measurement was negative and the value was lower than the theoretical value, synergistic effect by the combined use in the lipid decrease was deemed to have been realized.

Row | SMILES | decrease of the auricle skin temperature (Cho diet rabbit) | enhancement of the platelet collagen aggregation (Cho diet rabbit) | plasma TG concentration (Cho diet rabbit) | plasma total Cho concentration (Cho diet rabbit) | score of progress of the lesion (wet and dry gangrene, 0-4) [1] | plasma TG concentration (hypertriglyceridemia rat) | plasma free fatty acid concentration (hypertriglyceridemia rat) | Change rate Non-HDL Cho ([2]; 1000 mg/kg orally) [%] | Change rate TG ([2]; 1000 mg/kg orally) [%] | Change rate Total Cho ([2]; 1000 mg/kg orally) [%] | lipid reducing action (plasma TG, total Cho, non-HDL Cho) ([2]; high sucrose diet, 14 days oral administration) | Change rate Non-HDL Cho ([2]; 300 mg/kg orally) [%] | Change rate TG ([2]; 300 mg/kg orally) [%] | Change rate Total Cho ([2]; 300 mg/kg orally) [%]
1 | Cc1c(C)c2c(c(C)c1OC(=O)c1cccnc1)CCC(C)(CCCC(C)CCCC(C)CCCC(C)C)O2 (centres unmarked) [tocopherol nicotinate] | also suppressed | also suppressed | suppressed increase | suppressed increase | improved scores | suppressed increase | suppressed increase | -11.6 | -23.3 | -3.7 | the action of reducing the TG and non-HDL Cho was found |  |  | 
2 | CC/C=C\C/C=C\C/C=C\C/C=C\C/C=C\CCCC(=O)OCC [EPA-E, Ethyl icosapentaenoate] |  |  |  |  |  |  |  | 11.1 | 19.6 | 2.7 |  | 14.8 | 2.7 | 11.1
